In patent US4201786A, “Water soluble pesticidal quaternary ammonium salt compounds” (Union Carbide Corporation, priority 1977, dated 1980):

Tests used:
Assay type in all cases: in vivo
Soybean = test: Phytotoxicity test, soybean; parameters: key: 1: no perceptible injury; 2: intermediate degrees of injury based upon the number and extent to which leaves were injured; 3: intermediate degrees of injury based upon the number and extent to which leaves were injured; 4: intermediate degrees of injury based upon the number and extent to which leaves were injured; 5: the plant was dead; details: 2500 ppm spray, after ten days
Method: (§1) Suspensions of the test compounds were prepared by dissolving one gram of compound in 50 milliliters of acetone in which had been dissolved 0.1 gram (10 percent of the weight of compound) of an alkylphenoxy polyethoxyethanol surfactant, as an emulsifying or dispersing agent. The resulting solution was mixed into 150 milliliters of water to give roughly 200 milliliters of a suspension containing the compound in finely divided form. The thus-prepared stock suspension contained 0.5 percent by weight of test compound. The test concentrations in parts per million by weight employed in the tests described hereinbelow were obtained by appropriate dilutions of the stock suspension with water. The test procedures were as follows:
(§2) Experiments were also conducted to determine the phytotoxicity of representative compositions with respect to healthy fresh plants. Solutions of the compounds were prepared as described above to provide a concentration of 2500 parts per million of the test compound. The test plants were sprayed in accordance with the procedure described above for the Mite Foliage Spray Test so as to deliver approximately 100 milliliters of test solution to the leaves of each plant tested. The sprayed plants and controls were set aside for approximately one hour to allow the solutions to dry and were then placed in the greenhouse. After ten days the plants were visually inspected to determine the extent of foliage injury. A rating of 1 indicates no perceptible injury; 5 indicates the plant was dead and ratings of 2, 3 and 4 indicate intermediate degrees of injury based upon the number and extent to which leaves were injured.

[1] = system: house flies (Musca domestica, L.); test: Fly bait test; parameters: key: A: Excellent control; B: Partial control; C: No control; details: 500 ppm, bait in 10 percent sugar solution, twenty four hours
Method: as §1
Four to six day old adult house flies (Musca domestica, L.) reared according to the specifications of the Chemical Specialties Manufacturing Association (Blue Book, McNair-Dorland Co., NY., 1954; pages 243-244, 261) under controlled conditions of 80°±5° F. and 50±5 percent relative humidity, were the test insects. The flies were immobilized by anesthetizing with carbon dioxide and twenty five immobilized individuals, males and females, were transferred to a cage consisting of a standard food strainer about five inches in diameter which was inverted over a wrapping-paper-covered surface. The test compounds were formulated by diluting the stock suspension with a 10 percent (by weight) sugar solution to give a suspension containing 500 parts of test compound per million parts of final formulation, by weight. Ten milliliters of the test formulation were added to a souffle cup containing a one inch square of an absorbent cotton pad. This bait cup was introduced and centered on the blotting paper under the food strainer prior to admitting the anesthetized flies. The caged flies were allowed to feed on the bait for twenty four hours, at a temperature of 80°±5° F. and the relative humidity of 50±5 percent.
(§3) In these test the pesticidal activity of the compounds against aphid, mite, Southern Armyworm, Mexican Bean Beetle, and house fly was rated as follows: […]

[2] = system: Mexican bean beetle (Epilachna varivestis, Muls.); test: Mexican bean beetle leaf spray test; parameters: key: A: Excellent control; B: Partial control; C: No control; details: 500 ppm, three days
Method: as §1
Fourth instar larvae of the Mexican bean beetle (Epilachna varivestis, Muls.) reared on Tendergreen bean plants at a temperature of 80°±5° and 50±5 percent relative humidity, were the test insects.
The test compounds were formulated by diluting the stock suspension with water to give a suspension containing 500 parts of test compound per million parts of final formulation. Potted Tendergreen bean plants of standard height and age were placed on a revolving turntable and sprayed with 100-110 milliliters of test compound formulation by use of a DeVilbiss spray gun set at 10 psig air pressure. This application, which lasted 25 seconds was sufficient to wet plants to run-off. As a control, 100-110 milliliters of a water-acetone-emulsifier solution containing no test compound were also sprayed on infested plants. When dry, the paired leaves were separated and each was placed in a 9 centimeter Petri dish lined with moistened filter paper. Five randomly selected larvae were introduced into each dish, and the dishes were closed. The closed dishes were labeled and held at a temperature of 80°±5° F. for three days. Although the larvae could easily consume the leaf within 24 to 48 hours, no more food was added. Larvae which were unable to move the length of the body, even upon stimulation, were considered dead.
as §3

[3] = system: southern armyworm (Prodenia Eridania, (Cram.)); test: Southern armyworm leaf spray test; parameters: key: A: Excellent control; B: Partial control; C: No control; details: 500 ppm, three days
Method: as §1
Larvae of the southern armyworm (Prodenia Eridania, (Cram.), reared on Tendergreen bean plants at a temperature of 80°±5° F. and relative humidity of 50±5 percent, constituted the test insects.
The test compounds were formulated by diluting the stock suspension with water to give a suspension containing 500 parts of test compound per million parts of final formulation. Potted Tendergreen bean plants of standard height and age were placed on a revolving turntable and sprayed with 100-110 milliliters of test compound formulation by use of a DeVilbiss spray gun set at 10 psig. air pressure.
This application which lasted 25 seconds was sufficient to wet plants to run-off. As a control, 100-110 milliliters of a water-acetone-emulsifier solution containing no test compound were also sprayed on infested plants. When dry, the paired leaves were separated and each one was placed in a 9 centimeter Petri dish lined with moistened filter paper. Five randomly selected larvae were introduced into each dish and the dishes were closed. The closed dishes were labeled and held at 80°-85° F. for three days. Although the larvae could easily consume the whole leaf within twenty-four hours, no more food was added. Larvae which were unable to move the length of the body, even upon stimulation by prodding, were considered dead. Percent mortality was recorded for various concentration levels.
as §3

Cotton = test: Phytotoxicity test, cotton; parameters: key: 1: no perceptible injury; 2: intermediate degrees of injury based upon the number and extent to which leaves were injured; 3: intermediate degrees of injury based upon the number and extent to which leaves were injured; 4: intermediate degrees of injury based upon the number and extent to which leaves were injured; 5: the plant was dead; details: 2500 ppm spray, after ten days
Method: as §1, §2

Bean = test: Phytotoxicity test, bean; parameters: key: 1: no perceptible injury; 2: intermediate degrees of injury based upon the number and extent to which leaves were injured; 3: intermediate degrees of injury based upon the number and extent to which leaves were injured; 4: intermediate degrees of injury based upon the number and extent to which leaves were injured; 5: the plant was dead; details: 2500 ppm spray, after ten days
Method: as §1, §2

Structure (SMILES): CN(C(=O)C[N+](C)(C)C)C(=O)Oc1cccc2c1OC(C)(C)C2
- POST-Emergent Herbicidal (phytotoxicity rating), Soybean (Soybean): 2
- Pesticidal activity, Fly [1]: A
- Pesticidal activity, Mexican Bean Beetle [2]: A
- Pesticidal activity, Southern Armyworm [3]: A
- POST-Emergent Herbicidal (phytotoxicity rating), Cotton (Cotton): 2
- POST-Emergent Herbicidal (phytotoxicity rating), Bean (Bean): 1

Structure (SMILES): CN(C(=O)C[n+]1ccn(C)c1)C(=O)Oc1cccc2c1OC(C)(C)C2
- POST-Emergent Herbicidal (phytotoxicity rating), Soybean (Soybean): 2
- Pesticidal activity, Fly [1]: A
- Pesticidal activity, Mexican Bean Beetle [2]: A
- Pesticidal activity, Southern Armyworm [3]: A
- POST-Emergent Herbicidal (phytotoxicity rating), Cotton (Cotton): 1
- POST-Emergent Herbicidal (phytotoxicity rating), Bean (Bean): 2

Structure (SMILES): CN(C(=O)C[n+]1ccc(N(C)C)cc1)C(=O)Oc1cccc2c1OC(C)(C)C2
- POST-Emergent Herbicidal (phytotoxicity rating), Soybean (Soybean): 2
- Pesticidal activity, Fly [1]: A
- Pesticidal activity, Mexican Bean Beetle [2]: A
- Pesticidal activity, Southern Armyworm [3]: A
- POST-Emergent Herbicidal (phytotoxicity rating), Cotton (Cotton): 1
- POST-Emergent Herbicidal (phytotoxicity rating), Bean (Bean): 2

Structure (SMILES): CN(C(=O)C[N+]1(C)CCCC1)C(=O)Oc1cccc2c1OC(C)(C)C2
- POST-Emergent Herbicidal (phytotoxicity rating), Soybean (Soybean): 2
- Pesticidal activity, Fly [1]: A
- Pesticidal activity, Mexican Bean Beetle [2]: A
- Pesticidal activity, Southern Armyworm [3]: A
- POST-Emergent Herbicidal (phytotoxicity rating), Cotton (Cotton): 2
- POST-Emergent Herbicidal (phytotoxicity rating), Bean (Bean): 2

Structure (SMILES): CCCCCCCCCCCCCCCCCC[N+](C)(C)CC(=O)N(C)C(=O)Oc1cccc2c1OC(C)(C)C2
- POST-Emergent Herbicidal (phytotoxicity rating), Soybean (Soybean): 2
- Pesticidal activity, Fly [1]: A
- Pesticidal activity, Mexican Bean Beetle [2]: A
- Pesticidal activity, Southern Armyworm [3]: A
- POST-Emergent Herbicidal (phytotoxicity rating), Cotton (Cotton): 2
- POST-Emergent Herbicidal (phytotoxicity rating), Bean (Bean): 2

Structure (SMILES): CCCCCCCCCCCC[N+](C)(C)CC(=O)N(C)C(=O)Oc1cccc2c1OC(C)(C)C2
- POST-Emergent Herbicidal (phytotoxicity rating), Soybean (Soybean): 2
- Pesticidal activity, Fly [1]: A
- Pesticidal activity, Mexican Bean Beetle [2]: A
- Pesticidal activity, Southern Armyworm [3]: A
- POST-Emergent Herbicidal (phytotoxicity rating), Cotton (Cotton): 2
- POST-Emergent Herbicidal (phytotoxicity rating), Bean (Bean): 2
